Measurements from patent publication US7683211B2, “Jasmonate derivative compounds pharmaceutical compounds and methods of use thereof” (Ramot at Tel-Aviv University Ltd., priority 2003, dated 2010).
Like-named read-outs stand apart in the source and are kept apart here.

Key:
[1] = system: Molt-4 lymphoblastic leukemia cells; experiment: CellTiter 96 MTS cytotoxicity assay, Molt-4 leukemia cells; assay type: cell-based, human; conditions: for IC50: Homo sapiens, 24 h, Molt-4 at 2.5×10^4/ml
Procedure: (§1) Measurement of reduction in the number of living cells was determined by, the CellTiter 96 Aqueous Non-Radioactive Cell Proliferation Assay (Promega, Madison Wis.). Upon completion of a given experiment, MTS (a tetrazolium compound) at 333 μg/ml+phenazine methosulfate (at 25 μM) was added to each well of the 96-well plate for 1 hour at 37° C. This allowed for development of a color reaction in which dehydrogenases reduce the MTS in metabolically active cells. Since the cells were not washed before the addition of MTS, there were no potentially loosely adherent or non-adherent cells that could have been problematic. Soluble MTS formazan product was measured at a wavelength of 490 nm using a CERES 900 HDI ELISA reader (Bio-Tek Instruments, Inc, Highland Park, Vt.), Optical density is directly proportional to the number of living cells in culture. Cytotoxicity (%) was calculated in the following way: [(OD of control cells−OD of drug-treated cells)/OD of control cells]×100.
(§2) Molt-4 lymphoblastic leukemia cells (at 1.5×10^4/well), 3LL lung carcinoma cells (at 4×10^3/well), B16 melanoma cells (at 4×10^3/well), or HCT116 colon carcinoma cells (at 4×10^3/well) were seeded in 96-well plates and methyl jasmonate (MJ) or MJDB at 0.5 mM were added for 1 day. Optical density representing viable cells was determined by the CellTiter 96 Aqueous Non-Radioactive Cell Proliferation Assay (described above). Cytotoxicity was calculated as the % of control untreated cultures, mean±SD. n=3.
(§3) The optical density that represented viable cells was determined by the CellTiter 96 Aqueous Non-Radioactive Cell Proliferation Assay (Promega, Madison, Wis.), as described above. Cytotoxicity was calculated as % of control untreated cultures, mean±SE. n=3.
Biological assays were performed with a 1:1 mixture of the aforementioned tetra bromo isomers. More specifically, Molt-4 leukemic cells (at 2.5×10^4/ml) were incubated for one day in 96-well plates in the presence of different concentrations of either MJ or MJTB. The optical density that represented viable cells was determined by the CellTiter 96 Aqueous Non-Radioactive Cell Proliferation Assay (Promega, Madison, Wis.) as described above. Cytotoxicity is calculated as % of control untreated cultures, mean±SE. n=3.
Molt-4 (leukemia) cells (at 2.5×10^4/ml), and normal peripheral blood lymphocytes (PBL, at 2×10^5/ml) were incubated in 96-well plates for one day in the presence of different concentrations of MJTB. PBL were pre-incubated with 0.8 μg/ml phytohaemagglutinin +5 ng/ml TPA for 48 hours, to induce entrance into the cell cycle. These cells proliferate and therefore are similar in that respect to cancer cells, making the comparison more valid. The optical density that represented viable cells was determined by the CellTiter 96 Aqueous Non-Radioactive Cell Proliferation Assay (Promega, Madison, Wis.), as described above.
Molt4 leukemic cells (at 1.5×10^4/ml) were incubated for 1 day in the presence of different concentrations of halogenated derivatives of MJ. Specifically, these derivatives were MJS72f5 (one of R6 and R7 is iodo and the other is methoxy), MJS99 (R6 and R7 are each fluoro) and NJ-63 (one of R6 and R7 is bromo and the other is hydroxyl). The optical density that represented viable cells was determined by the CellTiter 96 Aqueous Non-Radioactive Cell Proliferation Assay (Promega, Madison, Wis.), described above. […] Another derivative.

lymphomas in mice = conditions: from U.S. Pat. No. 6,469,061; cited from earlier work
B16 melanoma cells = experiment: CellTiter 96 MTS cytotoxicity assay, B16 melanoma cells; assay type: cell-based
Procedure: as §1
as §2, with “Optical density representing viable cells was determined by the CellTiter 96 Aqueous Non-Radioactive Cell Proliferation Assay (described above).” left out, “n=3. […]” for “n=3.”

[2] = system: peripheral blood lymphocytes from chronic lymphocytic leukemia (CLL) patients; experiment: CellTiter 96 MTS cytotoxicity assay, CLL patient lymphocytes; assay type: cell-based, human; conditions: 1 day, several concentrations, FIG. 1; P<0.05 versus healthy donors
Procedure: as §1
(§4) In order to test the toxicity of MJDB towards human leukemia cells, peripheral blood lymphocytes from chronic lymphocytic leukemia (CLL) patients were harvested. […] The optical density that represented viable cells was determined by the CellTiter 96 Aqueous Non-Radioactive Cell Proliferation Assay (Promega, Madison, Wis.); an assay in which viable cells produce a colored product, as described above. […]

[3] = system: peripheral blood lymphocytes from healthy donors; experiment: CellTiter 96 MTS cytotoxicity assay, lymphocytes from healthy donors; assay type: cell-based, human; conditions: 1 day, several concentrations, FIG. 1
Procedure: as §1, §4

3LL lung carcinoma cells = experiment: CellTiter 96 MTS cytotoxicity assay, 3LL lung carcinoma cells; assay type: cell-based, mouse; conditions: 0.5 mM, 1 day, FIG. 2, P<0.05
Procedure: as §1
as §2, with “Optical density representing viable cells was determined by the CellTiter 96 Aqueous Non-Radioactive Cell Proliferation Assay (described above).” left out

[4] = system: HCT116 colon carcinoma cells; experiment: CellTiter 96 MTS cytotoxicity assay, HCT116 colon carcinoma cells; assay type: cell-based, human; conditions: 0.5 mM, 1 day, FIG. 2, P<0.05
Procedure: as §1
as §2, with “Optical density representing viable cells was determined by the CellTiter 96 Aqueous Non-Radioactive Cell Proliferation Assay (described above).” left out

[5] = system: 29M4.1 B lymphoma cells expressing wild type p53; experiment: CellTiter 96 MTS cytotoxicity assay, 29M4.1 B lymphoma clone with wild type p53; assay type: cell-based; conditions: 1 day, several concentrations, FIG. 3
Procedure: as §1
(§5) A system of two B lymphoma clones originating from the same cell line (29M4.1) was used. These clones differed solely in the expression of wild type versus mutant p53. […] The optical density that represented viable cells was determined by the CellTiter 96 Aqueous Non-Radioactive Cell Proliferation Assay (Promega, Madison, Wis.).

[6] = system: 29M4.1 B lymphoma cells expressing mutant p53; experiment: CellTiter 96 MTS cytotoxicity assay, 29M4.1 B lymphoma clone with mutant p53; assay type: cell-based; conditions: 1 day, several concentrations, FIG. 3
Procedure: as §1, §5

[7] = system: ATP levels in Molt-4 leukemia cells; experiment: ATP determination assay (CellTiter-Glo) in Molt-4 cells; assay type: cell-based, human; conditions: MJDB at 1 mM (MJ at 3 mM) for 10, 30 or 60 minutes at 37° C., FIG. 4
Procedure: An ATP determination assay was used to assess the effect of MJDB on ATP levels in cancer cells. More specifically, Molt-4 cells (at 1×10^4/well) were seeded in 96-well opaque-walled plates and MJ at 3 mM or MJDB at 1 mM were added for 10, 30 or 60 minutes at 37° C. Untreated cells incubated in culture medium were used as control. ATT levels were determined by the CellTiter-Glo™ Luminescent Cell Viability Assay; an assay in which cells produce a lumineascence signal that is equivalent to the ATP concentration in the cell. ATP depletion is calculated as % of control untreated cultures, mean±SD. n=3.

[8] = system: D122 (lung carcinoma) cells; experiment: CellTiter 96 MTS cytotoxicity assay, D122 lung carcinoma cells; assay type: cell-based, human; conditions: Mus musculus, 24 h; D122 at 5×10^3/ml, one day incubation, MTS readout
Procedure: as §1, §3

[9] = system: B16MDR (melanoma exhibiting multidrug resistance) cells; experiment: CellTiter 96 MTS cytotoxicity assay, B16MDR melanoma cells; assay type: cell-based, human; conditions: Mus musculus, 24 h; B16MDR at 2×10^3/ml, one day incubation, MTS readout; read-out: IC50 (cytotoxicity), B16 MDR
Procedure: as §1, §3

[10] = CellTiter 96 MTS cytotoxicity assay, stimulated normal PBL; assay type: cell-based; conditions: PBL at 2×10^5/ml, pre-incubated with phytohaemagglutinin + TPA for 48 hours, one day with compound
Procedure: as §1
(§6) Molt-4 (leukemia) cells (at 2.5×10^4/ml), and normal peripheral blood lymphocytes (PBL, at 2×10^5/ml) were incubated in 96-well plates for one day in the presence of different concentrations of MJTB. […] The optical density that represented viable cells was determined by the CellTiter 96 Aqueous Non-Radioactive Cell Proliferation Assay (Promega, Madison, Wis.), as described above.

[11] = system: normal peripheral blood lymphocytes (PBL); experiment: as above; assay type: cell-based; conditions: PBL versus Molt-4
Procedure: as §1, §6

[12] = one day, MJTB as 1:1 mixture of tetra bromo isomers (Example 6), read-out: IC50 (concentration exhibiting 50% cytotoxicity), Molt-4, MJTB versus MJ

Row | SMILES | IC50 [1, 12] [µM] | prevention of development of lymphomas in mice (lymphomas in mice) | cytotoxic effect compared to methyl jasmonate, Molt-4 ([1]; 0.5 mM, 1 day, FIG. 2, P<0.05) | cytotoxic effect compared to methyl jasmonate, B16 (B16 melanoma cells; 0.5 mM, 1 day, FIG. 2, P<0.05) | cytotoxicity towards lymphocytes from CLL patients [2] | cytotoxicity towards lymphocytes from healthy donors [3] | cytotoxic effect compared to methyl jasmonate, 3LL (3LL lung carcinoma cells) | cytotoxic effect compared to methyl jasmonate, HCT116 [4] | cytotoxicity towards B lymphoma cells expressing wild type p53 [5] | cytotoxicity towards B lymphoma cells expressing mutant p53 [6] | ATP depletion [7] | IC50 ([1]; one day incubation, MTS readout (Example 5), read-out: IC50 (cytotoxicity), Molt-4) [µM] | IC50 of MJTB smaller than that of MJ (fold) ([1]; Molt-4 cells, one day) | IC50 [8] [µM] | IC50 (B16 melanoma cells; 24 h, B16 at 2×10^3/ml, one day incubation, MTS readout) [µM] | IC50 [9] [µM] | IC50 at 1 day [10] [µM] | IC50 for normal peripheral blood lymphocytes relative to leukemic cells [11]
1 | CC/C=C\CC1C(=O)CCC1CC(=O)OC (stereo not shown) [MJ, methyl jasmonate, reference compound] | 500 | effective in preventing development of lymphomas in mice | – | – | – | – | – | – | – | – | – | – | – | – | – | – | – | –
2 | CCC(Br)C(Br)CC1C(=O)CCC1CC(=O)OC (stereo not shown) [MJDB, methyl jasmonate di-bromide] | – | – | highly superior in its cytotoxic effect | highly superior in its cytotoxic effect | highly and selectively cytotoxic | cytotoxicity is minimal | highly superior in its cytotoxic effect | highly superior in its cytotoxic effect | equally cytotoxic | equally cytotoxic | rapid and strong ATP depletion | – | – | – | – | – | – | –
3 | CCC(Br)C(Br)C[C@@]1(Br)C(=O)[C@@H](Br)CC1CC(=O)OC (stereo partly shown) [MJTB, methyl jasmonate tetra-bromide] | 8 | – | – | – | – | – | – | – | – | – | – | 8 | about 60 times | 50 | 80 | 80 | 250 | larger than that for leukemic cells by more than an order of magnitude
